These results are taken from ChEMBL document CHEMBL1201862, “PubChem BioAssay data set” (2004).

Among the test systems are 786-0; NCI-H226; NCI-H460; SF-539; KM12; UO-31; OVCAR-8; M14; SNB-19; HCC 2998; HL-60; RXF 393; HT-29; A549; SN12C; NCI-H522; MDA-MB-435; OVCAR-4; HCT-15; A498.
Test in all cases: DTP human tumour cell line panel, 48 h

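Cultured in 96-well plates, cells were exposed to test compound for 48 hours across five concentrations. GI50: concentration for 50% inhibition of growth.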 Activity calls are given as the source filed them. Cut-off read from the data, not from the text of the source: active = GI50 up to about 1.1 µM and inactive = higher.

Consider `O=C(CCCCCNC(=O)c1ccc(Cl)cc1)NO`, for which the GI50 (usually the concentration that inhibits growth by half) in the assay on 786-0 was 7.03 µM (inactive); in the assay with NCI-H226, 15.8 µM (inactive); in the assay with NCI-H460 it was 4.07 µM (inactive); in the assay on SF-539, 5.55 µM (inactive); in the assay with KM12, 6.59 µM (inactive); in the assay with UO-31, 6.53 µM (inactive). Also, the GI50 in the assay with OVCAR-8 is 3.41 µM (inactive); in the assay with M14, 5.71 µM (inactive); in the assay on SNB-19, 15 µM (inactive); with HCC 2998, 4.5 µM (inactive); with HL-60, 3.77 µM (inactive); in the assay with RXF 393, 3.66 µM (inactive). Further, the GI50 with HT-29 was 2.98 µM (inactive); in the assay on A549, 8.24 µM (inactive); in the assay with SN12C it was 5.51 µM (inactive); with NCI-H522, 2.19 µM (inactive); in the assay with MDA-MB-435 it was 3.11 µM (inactive); in the assay on OVCAR-4, 20.6 µM (inactive). In the assay on HCT-15, this molecule showed a GI50 of 15.3 µM.
Consider `CS(=O)(=O)OCOS(C)(=O)=O`, for which the GI50 was > 100 µM (inactive) in the assay with 786-0; 40.6 µM (inactive) in the assay on NCI-H226; 39.8 µM (inactive) in the assay on NCI-H460; > 100 µM (inactive) in the assay with SF-539; > 100 µM (inactive) in the assay with KM12; > 100 µM (inactive) with UO-31. In addition, the GI50 in the assay on OVCAR-8 was > 100 µM (inactive); in the assay on M14, > 100 µM (inactive); in the assay on SNB-19 it was > 100 µM (inactive); in the assay on HCC 2998, > 100 µM (inactive); in the assay on HL-60, 26.7 µM (inactive); with HT-29, 48.3 µM (inactive). Moreover, the GI50 in the assay with A549 is > 100 µM (inactive); in the assay on SN12C, > 100 µM (inactive); in the assay with MDA-MB-435, > 100 µM (inactive); with OVCAR-4, > 100 µM (inactive); in the assay on A498, > 100 µM (inactive); with HCT-15, 59.3 µM.
`CCOP(=O)(OCC)C1CC(O)CN1OC(=O)C(C)(C)C` (configuration not stated): the GI50 in the assay with 786-0, in the assay on NCI-H226, in the assay with KM12, in the assay on UO-31, in the assay with OVCAR-8 and with M14 was > 100 µM (inactive) each time. The GI50 in the assay on SNB-19, with HT-29, in the assay on A549, in the assay with SN12C, in the assay on MDA-MB-435 and with OVCAR-4 was > 100 µM (inactive) in each case. The GI50 in the assay with A498 is > 100 µM (inactive); with HCT-15, more than 100 µM.
With `COC(=O)C1CCC(=O)N1C(c1cc(OC)c(OC)c(OC)c1)c1cccc2ccccc12` (configuration not stated), the GI50 in the assay with 786-0 was > 100 µM (inactive); in the assay with NCI-H226 it was > 100 µM (inactive); in the assay with NCI-H460, > 100 µM (inactive); in the assay on SF-539, > 100 µM (inactive); in the assay with KM12 it was > 100 µM (inactive); in the assay with UO-31, 61.2 µM (inactive). In addition, the GI50 is > 100 µM (inactive) in the assay with OVCAR-8; > 100 µM (inactive) with M14; > 100 µM (inactive) with SNB-19; 11.7 µM (inactive) with HL-60; 35.6 µM (inactive) in the assay with HT-29; > 100 µM (inactive) with A549. Further, the GI50 in the assay with SN12C is > 100 µM (inactive); with NCI-H522, 51.5 µM (inactive); in the assay on MDA-MB-435, 63.2 µM (inactive); in the assay with A498 it was > 100 µM (inactive); in the assay with HCT-15 it was 71.1 µM.
Consider `O=C1C=C/C(=N\N=C(c2ccccc2)c2ccccc2)O1`, for which the GI50 with 786-0, in the assay with KM12, in the assay with OVCAR-8, in the assay with M14, in the assay with HCC 2998 and in the assay on HL-60 was > 10 µM (inactive) in each case. The GI50 in the assay with RXF 393, in the assay on HT-29, with A549, with SN12C, with MDA-MB-435 and in the assay on OVCAR-4 was > 10 µM (inactive) in each case. Moreover, in the assay with HCT-15, the GI50 was more than 10 µM.
As for `O=c1oc2ccc3ccccc3c2cc1-c1cn2ccsc2n1`, the GI50 in the assay on 786-0 is 17.9 µM (inactive); in the assay with NCI-H460 it was 51.5 µM (inactive); in the assay on SF-539 it was 20.7 µM (inactive); with KM12, 20.6 µM (inactive); with UO-31, 14.6 µM (inactive); in the assay on OVCAR-8, 19.2 µM (inactive). The GI50 in the assay with M14 was 24 µM (inactive); with SNB-19, > 100 µM (inactive); in the assay with HCC 2998, 16.7 µM (inactive); in the assay with HL-60 it was 17.8 µM (inactive); in the assay with RXF 393, 17.3 µM (inactive); with HT-29, 18 µM (inactive). The GI50 is 49.9 µM (inactive) in the assay with A549; 28.4 µM (inactive) in the assay on SN12C; 17.1 µM (inactive) with NCI-H522; 22.4 µM (inactive) in the assay with MDA-MB-435; 19.6 µM (inactive) in the assay with OVCAR-4; 16 µM in the assay with HCT-15.
As to `C[C@H](c1ccccc1)n1c(N)c(-c2nc3ccccc3s2)c2ccc([N+](=O)[O-])cc2c1=O`, the GI50 in the assay with 786-0 is 9.29 µM (inactive); with NCI-H226, 4.65 µM (inactive); in the assay on NCI-H460, 4.09 µM (inactive); in the assay on SF-539, 16.9 µM (inactive); in the assay on KM12, 4.45 µM (inactive); with UO-31, 3.83 µM (inactive). The GI50 was 3.83 µM (inactive) in the assay with OVCAR-8; 14.8 µM (inactive) with M14; 3.49 µM (inactive) in the assay with SNB-19; 4.4 µM (inactive) in the assay with HCC 2998; 0.327 µM (active) with HL-60; 5.37 µM (inactive) in the assay with HT-29. Besides, the GI50 with A549 was 9.98 µM (inactive); in the assay on SN12C, 8.32 µM (inactive); with NCI-H522, 1.32 µM (inactive); in the assay with MDA-MB-435 it was 9.66 µM (inactive); in the assay on OVCAR-4, 4.34 µM (inactive); with A498, 11 µM (inactive). Besides, the GI50 with HCT-15 was 4.76 µM.
Turning to `C=CCNC(=O)/C(Cc1cc(Br)c(OC)c(Br)c1O)=N\O`, the GI50 with 786-0 is 2.61 µM (inactive); with NCI-H226 it was 2.59 µM (inactive); in the assay on NCI-H460 it was 3.84 µM (inactive); in the assay with SF-539, 3.6 µM (inactive); in the assay with KM12 it was 2.77 µM (inactive); with UO-31 it was 3.49 µM (inactive). Further, the GI50 is 4.65 µM (inactive) in the assay with OVCAR-8; 4.22 µM (inactive) in the assay with M14; 4.41 µM (inactive) in the assay with SNB-19; 4.25 µM (inactive) in the assay with HCC 2998; 1.29 µM (inactive) in the assay on HL-60; 15 µM (inactive) in the assay with HT-29. Besides, the GI50 in the assay with A549 was 6.68 µM (inactive); in the assay on NCI-H522, 1.78 µM (inactive); in the assay with MDA-MB-435, 0.515 µM (active); with OVCAR-4, 7.23 µM (inactive); with A498, 10.1 µM (inactive); in the assay on HCT-15, 2.57 µM.
Regarding `CC(C)CC(=O)NC(NC(C)C)(C(F)(F)F)C(F)(F)F`, the GI50 in the assay on 786-0, in the assay on NCI-H226, in the assay on NCI-H460, in the assay on SF-539, with KM12 and in the assay with UO-31 was > 100 µM (inactive) throughout. For the same molecule, the GI50 is > 100 µM (inactive) in the assay on OVCAR-8; > 100 µM (inactive) in the assay on SNB-19; > 100 µM (inactive) in the assay with HCC 2998; 60.5 µM (inactive) with HL-60; > 100 µM (inactive) with RXF 393; > 100 µM (inactive) in the assay with HT-29. Also, the GI50 with A549 is > 100 µM (inactive); in the assay on SN12C it was > 100 µM (inactive); in the assay on NCI-H522 it was > 100 µM (inactive); in the assay on MDA-MB-435, > 100 µM (inactive); with OVCAR-4, > 100 µM (inactive); in the assay with HCT-15, more than 100 µM.
Consider `COc1cc2c(cc1Cl)[n+]([O-])c(C#N)c(N1CCN(c3ccc([N+](=O)[O-])cc3)CC1)[n+]2[O-]`, for which the GI50 with 786-0 is 12.7 µM (inactive); in the assay on NCI-H226, > 100 µM (inactive); with NCI-H460 it was 7.78 µM (inactive); in the assay with SF-539, 10.8 µM (inactive); in the assay on KM12 it was 21.9 µM (inactive); with UO-31 it was 0.938 µM (active). Further, the GI50 in the assay on OVCAR-8 was 7.28 µM (inactive); in the assay on M14, 17.5 µM (inactive); in the assay on SNB-19, 32 µM (inactive); with HCC 2998, 19.1 µM (inactive); with HL-60, 51.2 µM (inactive); in the assay on RXF 393 it was 27 µM (inactive). Moreover, the GI50 is 36.9 µM (inactive) in the assay on HT-29; 11.6 µM (inactive) in the assay with A549; 32.6 µM (inactive) in the assay on SN12C; 5.7 µM (inactive) in the assay on NCI-H522; 19.5 µM (inactive) in the assay on MDA-MB-435; 30 µM (inactive) with OVCAR-4. The molecule further showed a 50% growth inhibitory concentration (GI50) with HCT-15 of 11.1 µM.
Consider `Cc1noc(NS(=O)(=O)c2ccc(NC(=O)c3ccc4[nH]c5ccccc5c(=O)c4c3)cc2)c1C`, for which the GI50 in the assay on 786-0 was 46.2 µM (inactive); in the assay with NCI-H226, > 100 µM (inactive); in the assay with NCI-H460, 87.9 µM (inactive); in the assay with SF-539, 20.6 µM (inactive); in the assay with KM12, 36.1 µM (inactive); in the assay on UO-31, 75 µM (inactive). Moreover, the GI50 with OVCAR-8 is 32.2 µM (inactive); in the assay with M14, > 100 µM (inactive); in the assay with SNB-19, 87.9 µM (inactive); with HCC 2998, 22.3 µM (inactive); in the assay with HL-60 it was 27.4 µM (inactive); in the assay on RXF 393, 36.4 µM (inactive). Moreover, the GI50 was 39.3 µM (inactive) with HT-29; > 100 µM (inactive) with A549; > 100 µM (inactive) in the assay with SN12C; 26.4 µM (inactive) in the assay with NCI-H522; 35.6 µM (inactive) with MDA-MB-435; 39.4 µM (inactive) in the assay with OVCAR-4. The same molecule gave a GI50 in the assay on HCT-15 of more than 100 µM.
